Here are results for one compound from patent US12433876B2, “Septin inhibitors for treatment of cancers” (UNIVERSITY OF ROCHESTER, priority 2019, dated 2025).

The structures appear in SMILES notation.

The subject of one test is PANC-1 cells. The experiment in a line: Live/Dead dye flow cytometry, PANC-1. It counts as cell-based, human. The following applies: PANC-1, 3 μM. How it is done: Cell Lines, Cell Culture, and Reagents. PANC-1, BXPC-3 and CAPAN-1, SKOV-3, MCF7, MDA-MD-231 cells were obtained from ATCC and maintained in DMEM, RPMI-1640 and IMDM supplemented with 10% fetal calf serum penicillin (100 units/mL), and streptomycin (100 μg/mL) at 37° C. with 5% CO2 in a humidified incubator. JIMT-1 cells were purchased from AddexBio Inc, USA (catalog number: C0006005) and maintained in 10% FBS and antibiotic supplemented DMEM. […] The reaction was monitored using thin-layer chromatography plates with DCM-MeOH or pure ethyl acetate as eluent. Spots were monitored in a UV chamber. […] ICM scores for each compound and their poses were calculated and compared with FCF. […] Cell viability of PANC-1, BXPC-3 and CAPAN-1 pancreatic cancer cells treated with UR214-9 was measured using the Cell Titre96R Aqueous One Solution Cell Proliferation Assay (Promega Corp., catalog number: G3580) following the procedure published earlier. […] The cells were analyzed by a 305 flow cytometer and relative live and dead cell population was calculated by inputting equal number of cells in both vehicle and control group.

The subject of another test is actin. Nature of the test: Confocal analysis of actin filaments (Phalloidin-TRITC). It counts as cell-based. The following applies: PANC-1 and JIMT1 cells, for 48 hours.
The target in the next test is T1, septin-2 (Homo sapiens, UniProt Q15019).
T1 sequence (Q15019 1-361): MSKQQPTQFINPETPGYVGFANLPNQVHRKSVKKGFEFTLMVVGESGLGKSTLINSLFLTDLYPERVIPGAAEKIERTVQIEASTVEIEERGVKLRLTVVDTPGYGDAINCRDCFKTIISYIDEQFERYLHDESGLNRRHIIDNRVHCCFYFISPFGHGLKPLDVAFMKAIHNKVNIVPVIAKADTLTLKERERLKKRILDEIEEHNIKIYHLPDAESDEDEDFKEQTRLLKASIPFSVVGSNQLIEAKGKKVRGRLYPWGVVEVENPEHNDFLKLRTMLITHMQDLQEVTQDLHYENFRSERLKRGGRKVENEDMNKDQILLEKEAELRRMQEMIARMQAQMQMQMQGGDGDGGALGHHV
The experiment in a line: Immunoblot of septin-2 expression. The note with it: 48 hours. It counts as cell-based. (In general: A western blot detects proteins with antibodies after separation by electrophoresis.)

Turning to `O=C(Nc1cc(Cl)nc(Cl)c1)Nc1cccc(SC(F)(F)F)c1F` [UR214-9], in the test with PANC-1 cells, the dead-cell population entry is given as “over 38%”. In addition, the actin filaments result in the test on actin was “actin filament disruption”. Also, the “septin-2 protein expression levels (western blot)” value at septin-2 (MDA-MB-231, JIMT-1 and MCF-7 cells, 10 and 30 μM) is “does not alter the protein expression levels”. On septin-2 (PANC-1, 1.0 and 10.0 μM), the “septin-2 expression (immunoblot)” value is “unaffected”.
